One test deals with CK1δ (Homo sapiens (Human), UniProt P48730). Put plainly: CK1δ kinase assay (Caliper LABCHIP electrophoretic separation of fluoresceinated peptide substrate and product). Format: biochemical. The conditions noted are these: 200 pM CK1δ, 50 μM ATP, 1.5 μM peptide substrate, 22 hours at room temperature; read-out: CK1δ (IC50). In outline: (§1)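 Compounds, taken from 10 mM DMSO stocks, are titrated at eleven concentrations. Kinase reactions proceed for 22 hours at room temperature and are quenched with EDTA. Substrate and product are resolved electrophoretically, and IC50 values are fitted by non-linear regression.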
Chain of CK1δ (P48730 whole entry): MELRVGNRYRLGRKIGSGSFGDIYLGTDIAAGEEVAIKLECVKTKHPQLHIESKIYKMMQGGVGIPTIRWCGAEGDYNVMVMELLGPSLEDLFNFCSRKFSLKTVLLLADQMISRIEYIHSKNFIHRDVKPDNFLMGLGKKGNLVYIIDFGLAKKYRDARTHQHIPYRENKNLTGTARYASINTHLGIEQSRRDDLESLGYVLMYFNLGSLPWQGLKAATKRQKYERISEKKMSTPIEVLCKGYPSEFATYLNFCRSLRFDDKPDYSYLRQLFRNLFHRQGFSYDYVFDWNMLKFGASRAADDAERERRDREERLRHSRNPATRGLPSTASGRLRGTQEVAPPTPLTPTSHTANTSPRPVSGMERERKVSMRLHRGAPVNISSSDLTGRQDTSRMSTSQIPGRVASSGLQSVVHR

Another test addresses CK1ε (Homo sapiens (Human), UniProt P49674). Put plainly: CK1ε kinase assay (Caliper LABCHIP electrophoretic separation of fluoresceinated peptide substrate and product). Format: biochemical. The settings on record: 200 pM CK1ε, 50 μM ATP, 1.5 μM peptide substrate, 22 hours at room temperature; read-out: CK1ε (IC50). In outline: as §1

We go through 27 molecules from patent US9598423B2 (BRISTOL-MYERS SQUIBB COMPANY, priority 2013, dated 2017).

pIC50: −log10 of the molar value.

What is called pIC50 is the negative decadic logarithm of the IC50, by convention in mol/L.

Chain of CK1ε (P49674 whole entry): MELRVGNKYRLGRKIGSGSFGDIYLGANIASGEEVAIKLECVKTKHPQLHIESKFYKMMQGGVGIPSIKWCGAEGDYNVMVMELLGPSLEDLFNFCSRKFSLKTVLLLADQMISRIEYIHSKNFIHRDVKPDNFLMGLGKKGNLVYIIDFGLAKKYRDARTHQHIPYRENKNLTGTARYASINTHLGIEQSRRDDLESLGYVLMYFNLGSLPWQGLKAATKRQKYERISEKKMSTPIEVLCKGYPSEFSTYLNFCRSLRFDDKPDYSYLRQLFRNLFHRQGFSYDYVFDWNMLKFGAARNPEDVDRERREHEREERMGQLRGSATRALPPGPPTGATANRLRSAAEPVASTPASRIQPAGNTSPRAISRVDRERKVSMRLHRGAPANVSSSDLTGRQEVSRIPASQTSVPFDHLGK

Take `NC(=O)c1c(-c2cccc(Cl)c2)nn2c1CN(C(=O)Nc1ccc(N3CCCCC3)cc1)C[C@@H]2CF` [Compound A11, (R)-2-(3-Chlorophenyl)-7-(fluoromethyl)-N^5-(4-(piperidin-1-yl)phenyl)-6,7-dihydropyrazolo[1,5-a]pyrazine-3,5(4H)-dicarboxamide]: the pIC50 on CK1δ and on CK1ε was 8.00 to 11.00 each time.

In the case of `N#Cc1ccc(NC(=O)N2CCn3nc(-c4ccc(F)c(F)c4)c(C(N)=O)c3C2)cc1` [Compound 291, N^5-(4-Cyanophenyl)-2-(3,4-difluorophenyl)-6,7-dihydropyrazolo[1,5-a] pyrazine-3,5(4H)-dicarboxamide], the negative logarithm of the IC50 (pIC50) on CK1δ and on CK1ε was 8.00 to 11.00 in each case.

Consider `N#Cc1ccc(NC(=O)N2CCn3nc(-c4ccc(F)c(Cl)c4)c(C(N)=O)c3C2)cc1N1CCOCC1` [Compound A49, 2-(3-Chloro-4-fluorophenyl)-N^5-(4-cyano-3-morpholinophenyl)-6,7-dihydropyrazolo[1,5-a]pyrazine-3,5(4H)-dicarboxamide], for which the pIC50 at CK1δ and on CK1ε was 8.00 to 11.00 in each case.

For the molecule `NC(=O)c1c(-c2ccc(F)c(Cl)c2)nn2c1CN(C(=O)Nc1cc(F)c(F)c(F)c1)CC2` [Compound 187, 2-(3-Chloro-4-fluorophenyl)-N^5-(3,4,5-trifluorophenyl)-6,7-dihydropyrazolo[1,5-a] pyrazine-3,5(4H)-dicarboxamide], the pIC50 at CK1δ and at CK1ε was 8.00 to 11.00 in each case.

In the case of `N#Cc1ccc(NC(=O)N2CCn3nc(-c4cnc(F)c(Cl)c4)c(C(N)=O)c3C2)cc1` [Compound 293, 2-(5-Chloro-6-fluoropyridin-3-yl)-N^5-(4-cyanophenyl)-6,7-dihydropyrazolo[1,5-a] pyrazine-3,5(4H)-dicarboxamide], the pIC50 on CK1δ and at CK1ε was 8.00 to 11.00 each time.

As to `Cc1ccc(-c2nn3c(c2C(N)=O)CN(C(=O)Nc2ccc(C#N)c(Cl)c2)CC3)cc1Cl` [Compound 256, N^5-(3-Chloro-4-cyanophenyl)-2-(3-chloro-4-methylphenyl)-6,7-dihydropyrazolo[1,5-a] pyrazine-3,5(4H)-dicarboxamide], the pIC50 on CK1δ and at CK1ε was 8.00 to 11.00 in each case.

For `NC(=O)c1c(-c2cccc(F)c2)nn2c1CN(C(=O)Nc1cc(F)cc(F)c1)CC2` [Compound 31, N^5-(3,5-Difluorophenyl)-2-(3-fluorophenyl)-6,7-dihydropyrazolo[1,5-a]pyrazine-3,5(4H)-dicarboxamide], the pIC50 at CK1δ and on CK1ε was 8.00 to 11.00 each time.

With `NC(=O)c1c(-c2ccc(Cl)c(Cl)c2)nn2c1CN(C(=O)Nc1ccc(OC(F)(F)F)cc1)CC2` [Compound 213, 2-(3,4-Dichlorophenyl)-N^5-(4-(trifluoromethoxy)phenyl)-6,7-dihydropyrazolo[1,5-a] pyrazine-3,5(4H)-dicarboxamide], the pIC50 at CK1δ and at CK1ε was 8.00 to 11.00 in each case.

On to `N#Cc1ccc(NC(=O)N2Cc3c(C(N)=O)c(-c4ccc(F)c(Cl)c4)nn3CC2C(F)(F)F)cc1` (single isomer, unassigned) [Compound 335, 2-(3-Chloro-4-fluorophenyl)-N^5-(4-cyanophenyl)-6-(trifluoromethyl)-6,7-dihydropyrazolo[1,5-a]pyrazine-3,5(4H)-dicarboxamide], for which the negative-log IC50 (pIC50) at CK1δ and at CK1ε was 5.70 to 7.00 each time.

For `N#Cc1ccc(NC(=O)N2Cc3c(C(N)=O)c(-c4ccc(F)c(Cl)c4)nn3CC2C(F)(F)F)cc1` (single isomer, unassigned) [Compound 336, 2-(3-Chloro-4-fluorophenyl)-N^5-(4-cyanophenyl)-6-(trifluoromethyl)-6,7-dihydropyrazolo[1,5-a]pyrazine-3,5(4H)-dicarboxamide], the pIC50 at CK1δ and at CK1ε was 8.00 to 11.00 throughout.

As to `CC(C)(C)c1cc(NC(=O)N2CCn3nc(-c4ccc(F)c(Cl)c4)c(C(N)=O)c3C2)ccc1C#N` [Compound A51, N^5-(3-(tert-Butyl)-4-cyanophenyl)-2-(3-chloro-4-fluorophenyl)-6,7-dihydropyrazolo[1,5-a]pyrazine-3,5(4H)-dicarboxamide], the pIC50 on CK1δ and on CK1ε was 8.00 to 11.00 in each case.

On to `N#Cc1ccc(NC(=O)N2Cc3c(C(N)=O)c(-c4cccc(F)c4)nn3C3(CC3)C2)cc1` [Compound A87, N^5′-(4-Cyanophenyl)-2′-(3-fluorophenyl)-4′H-spiro[cyclopropane-1,7′-pyrazolo[1,5-a]pyrazine]-3′,5′(6′H)-dicarboxamide], for which the pIC50 at CK1δ and on CK1ε was 8.00 to 11.00 in each case.

In the case of `N#Cc1ccc(NC(=O)N2CCn3nc(-c4cc(F)cc(Cl)c4)c(C(N)=O)c3C2)cc1Cl` [Compound 222, N^5-(3-Chloro-4-cyanophenyl)-2-(3-chloro-5-fluorophenyl)-6,7-dihydropyrazolo[1,5-a] pyrazine-3,5(4H)-dicarboxamide], the pIC50 at CK1δ and on CK1ε was 8.00 to 11.00 throughout.

`CC(C)(C)NC(=O)N1CCn2nc(-c3ccc(Cl)c(Cl)c3)c(C(N)=O)c2C1` [Compound 129, N^5-(tert-Butyl)-2-(3,4-dichlorophenyl)-6,7-dihydropyrazolo[1,5-a]pyrazine-3,5(4H)-dicarboxamide]: the pIC50 on CK1δ and at CK1ε was 8.00 to 11.00 throughout.

With `Cc1cc(-c2nn3c(c2C(N)=O)CN(C(=O)Nc2ccc(C#N)c(Cl)c2)CC3)ccc1F` [Compound 244, N^5-(3-Chloro-4-cyanophenyl)-2-(4-fluoro-3-methylphenyl)-6,7-dihydropyrazolo[1,5-a] pyrazine-3,5(4H)-dicarboxamide], the pIC50 at CK1δ and on CK1ε was 8.00 to 11.00 throughout.

Take `N#Cc1ccc(NC(=O)N2CCn3nc(-c4cc(Cl)ccc4Cl)c(C(N)=O)c3C2)cc1` [Compound 272, N^5-(4-Cyanophenyl)-2-(2,5-dichlorophenyl)-6,7-dihydropyrazolo[1,5-a] pyrazine-3,5(4H)-dicarboxamide]: the pIC50 on CK1δ and at CK1ε was 8.00 to 11.00 throughout.

With `CC(C)(C)c1cc(NC(=O)N2CCn3nc(-c4cccc(Cl)c4)c(C(N)=O)c3C2)ccc1C#N` [Compound A42, N^5-(3-(tert-Butyl)-4-cyanophenyl)-2-(3-chlorophenyl)-6,7-dihydropyrazolo[1,5-a]pyrazine-3,5(4H)-dicarboxamide], the pIC50 at CK1δ and at CK1ε was 8.00 to 11.00 in each case.

As to `COc1cc(-c2nn3c(c2C(N)=O)CN(C(=O)Nc2ccc(C#N)cc2)CC3)ccc1F` [Compound 280, N^5-(4-Cyanophenyl)-2-(4-fluoro-3-methoxyphenyl)-6,7-dihydropyrazolo[1,5-a] pyrazine-3,5(4H)-dicarboxamide], the pIC50 at CK1δ and at CK1ε was 8.00 to 11.00 each time.

Take `Cc1cc(NC(=O)N2CCn3nc(-c4cc(F)cc(Cl)c4)c(C(N)=O)c3C2)ccc1C#N` [Compound 221, 2-(3-Chloro-5-fluorophenyl)-N^5-(4-cyano-3-methylphenyl)-6,7-dihydropyrazolo[1,5-a]pyrazine-3,5(4H)-dicarboxamide]: the pIC50 at CK1δ and at CK1ε was 8.00 to 11.00 each time.

For the molecule `NC(=O)c1c(-c2cccc(F)c2)nn2c1CN(C(=O)NC13CC4CC(O)(CC(F)(C4)C1)C3)CC2` (stereo not drawn) [Compound 94, N^5-(3-Fluoro-5-hydroxyadamantan-1-yl)-2-(3-fluorophenyl)-6,7-dihydropyrazolo[1,5-a]pyrazine-3,5(4H)-dicarboxamide], the negative-log IC50 (pIC50) on CK1δ and at CK1ε was 8.00 to 11.00 in each case.

For the molecule `NC(=O)c1c(-c2ccc(Cl)c(Cl)c2)nn2c1CN(C(=O)Nc1cc(F)cc(C(F)(F)F)c1)CC2` [Compound 212, 2-(3,4-Dichlorophenyl)-N^5-(3-fluoro-5-(trifluoromethyl)phenyl)-6,7-dihydropyrazolo [1,5-a]pyrazine-3,5(4H)-dicarboxamide], the pIC50 on CK1δ and on CK1ε was 8.00 to 11.00 throughout.

`N#Cc1ccc(NC(=O)N2CCn3nc(-c4cc(F)c5cn[nH]c5c4)c(C(N)=O)c3C2)cc1F` [Compound 324, N^5-(4-Cyano-3-fluorophenyl)-2-(4-fluoro-1H-indazol-6-yl)-6,7-dihydropyrazolo[1,5-a]pyrazine-3,5(4H)-dicarboxamide]: the pIC50 at CK1δ and at CK1ε was 8.00 to 11.00 throughout.

Take `NC(=O)c1c(-c2cccc(F)c2)nn2c1CN(C(=O)NC1CCN(CCC(F)(F)F)CC1)CC2` [Compound 103, 2-(3-Fluorophenyl)-N^5-(1-(3,3,3-trifluoropropyl)piperidin-4-yl)-6,7-dihydropyrazolo[1,5-a]pyrazine-3,5(4H)-dicarboxamide]: the figures for the pIC50 at CK1δ and at CK1ε were 8.00 to 11.00 and 7.00 to 8.00, respectively.

On to `CC1CN(C(=O)Nc2ccc(C#N)cc2)Cc2c(C(N)=O)c(-c3cccc(F)c3)nn21` (single isomer, unassigned) [Compound A79, N^5-(4-Cyanophenyl)-2-(3-fluorophenyl)-7-methyl-6,7-dihydropyrazolo[1,5-a]pyrazine-3,5(4H)-dicarboxamide], for which the pIC50 at CK1δ and at CK1ε was 5.70 to 7.00 throughout.

On to `COc1cccc(-c2nn3c(c2C(N)=O)CN(C(=O)NC(C)(C)C)CC3)c1` [Compound 109, N^5-(tert-Butyl)-2-(3-methoxyphenyl)-6,7-dihydropyrazolo[1,5-a]pyrazine-3,5(4H)-dicarboxamide], for which the pIC50 on CK1δ and on CK1ε was 8.00 to 11.00 each time.

As to `Cc1cc(NC(=O)N2CCn3nc(-c4cccc(Cl)c4)c(C(N)=O)c3C2)ccc1C#N` [Compound A38, 2-(3-Chlorophenyl)-N^5-(4-cyano-3-methylphenyl)-6,7-dihydropyrazolo[1,5-a]pyrazine-3,5(4H)-dicarboxamide], the pIC50 at CK1δ and at CK1ε was 8.00 to 11.00 throughout.

As for `COC(=O)N1CCC(NC(=O)N2CCn3nc(-c4cccc(F)c4)c(C(N)=O)c3C2)CC1` [Compound 99, Methyl 4-(3-carbamoyl-2-(3-fluorophenyl)-4,5,6,7-tetrahydropyrazolo[1,5-a]pyrazine-5-carboxamido)piperidine-1-carboxylate], the pIC50 on CK1δ and on CK1ε was 8.00 to 11.00 throughout.
